Reference: patent publication US20260216168A1, “MODULATION OF PD-1 SIGNALING FOR TREATMENT OF DISEASES” (Wuhan University, priority 2023, published 2026)
Entries after “also recorded” stand apart in the source; their conditions may differ.

Key:
MC38 cells = assay: PC, IL-2 and anti-PD-1 therapy in C57BL/6j mice bearing MC38 tumors; format: in vivo; conditions: PC 5 mg/kg, IL-2 50000 IU per mouse, anti-PD-1 100 μg per mouse, i.p.
Protocol: (§1) C57BL/6j mice were subcutaneously injected with 5×10^5 of MC38 or B16F10 cells. On day 3 (MC38) or 5 (B16F10) after tumor cell implantation, mice were intraperitoneally injected with control or PC (5 mg/kg/day). Tumor sizes were measured every two days by caliper. Tumor-bearing mice were euthanized on day 13 (MC38) or day 15 (B16F10). Tumor weights were measured by Analytical Balance. […] Data were analyzed using a student's unpaired t-test with GraphPad Prism 8. • (D) Effects of PC on the level of γc in TILs. TILs were isolated from the MC38 tumor tissues of FIG. 7C. TILs were stained with the indicated antibodies and analyzed by flow cytometry. […] Data were analyzed using a student's unpaired t-test with GraphPad Prism 8. […] TILs were isolated from the MC38 tumor tissues of FIG. 7C. TILs were stained with the indicated antibodies and analyzed by flow cytometry. […] C57BL/6j mice were subcutaneously injected with MC38 cells (5×10^5). […] Tumor sizes were measured every two days by caliper from day 5. […] C57BL/6j mice were subcutaneously injected with MC38 cells (5×10^5). […] Mice were sacrificed when the tumor size is bigger than 15 mm of the mean tumor diameter, tumor volume exceeded 2000 mm^3, or tumor had ulcers with diameter reached 10 mm. Statistical analysis was performed using the GraphPad Prism 8 software, n=8. Kaplan-Meier survival curves and corresponding log-rank (Mantel-Cox) tests were used to evaluate the statistical differences between groups in survival studies. There is a significant difference when the P<0.05.
Tumor size and mouse survival were measured every two days from day 5.
For survival studies, mice were sacrificed when the tumor size was bigger than 15 mm of the mean tumor diameter, tumor volume exceeded 2000 mm^3, or tumor had ulcers with a diameter reached 10 mm. Statistical analysis was performed using the GraphPad Prism 8 software. Kaplan-Meier survival curves and corresponding log-rank (Mantel-Cox) tests were used to evaluate the statistical differences between groups in survival studies. There is a significant difference when the P<0.05.

[1] = test system: MARCH5-deficient Jurkat cells; assay: γc level by immunoblotting in control or MARCH5-deficient Jurkat cells treated with PC; format: cell-based, human; conditions: PC 0, 0.5, 1 μM, 24 h, listed as PC
[2] = test system: MC38 colorectal carcinoma and B16F10 melanoma; assay: Pitavastatin calcium (PC) therapy in C57BL/6j mice, MC38 and B16F10 tumor models; format: in vivo, mouse; conditions: PC alone 5 mg/kg/day i.p.; MC38 and B16F10 in C57BL/6j mice; listed as PC
Protocol: C57BL/6j mice were subcutaneously injected with 5×10^5 of MC38 or B16F10 cells. On day 3 (MC38) or 5 (B16F10) after tumor cell implantation, mice were intraperitoneally injected with control or PC (5 mg/kg/day). Tumor sizes were measured every two days by caliper. Tumor-bearing mice were euthanized on day 13 (MC38) or day 15 (B16F10). Tumor weights were measured by Analytical Balance. […] Data were analyzed using a student's unpaired t-test with GraphPad Prism 8. • (D) Effects of PC on the level of γc in TILs. TILs were isolated from the MC38 tumor tissues of FIG. 7C. TILs were stained with the indicated antibodies and analyzed by flow cytometry. […] Data were analyzed using a student's unpaired t-test with GraphPad Prism 8. […] TILs were isolated from the MC38 tumor tissues of FIG. 7C. TILs were stained with the indicated antibodies and analyzed by flow cytometry. […] C57BL/6j mice were subcutaneously injected with MC38 cells (5×10^5). […] Tumor sizes were measured every two days by caliper from day 5. […]
Pitavastatin calcium (PC) therapy in C57BL/6j mice: mice were intraperitoneally injected with control or PC (P129617, 5 mg/kg/day, dissolved in PBS, Aladdin) three (MC38 tumor) or five (B16F10 tumor) days after inoculation of tumor cells, and tumor sizes were measured every two days by caliper. […] TILs were analyzed by flow cytometry.

tumor = assay: PC or rosuvastatin calcium alone or with IL-2 on tumor growth in mice; format: in vivo, mouse
Excerpt: We further tested the anti-tumor effects of PC in mouse MC38 colorectal carcinoma and B16F10 melanoma models.

MARCH5 = target: T1, MARCH5 (Homo sapiens, UniProt Q9NX47); assay: MARCH5 / γc-luciferase reporter system in co-transfected HEK293 cells (screen of FDA-approved drugs); format: cell-based
T1 construct: expressed in transfected cells; host or cells: HEK293
T1 sequence (Q9NX47 1-278): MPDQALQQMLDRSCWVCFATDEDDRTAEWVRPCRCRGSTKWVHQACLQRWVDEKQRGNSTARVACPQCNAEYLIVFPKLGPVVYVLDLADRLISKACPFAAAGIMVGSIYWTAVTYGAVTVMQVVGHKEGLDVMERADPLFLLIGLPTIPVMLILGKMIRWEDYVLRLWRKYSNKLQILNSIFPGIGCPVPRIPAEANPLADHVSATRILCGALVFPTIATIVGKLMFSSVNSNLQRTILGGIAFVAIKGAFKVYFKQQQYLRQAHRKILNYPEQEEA
Excerpt: Unfortunately, no pharmacological inhibitors of MARCH5 have been reported. We designed a reporter system in which HEK293 cells are co-transfected with two plasmids encoding MARCH5 and γc-luciferase fusion protein respectively. In this system, inhibition of MARCH5 by an inhibitor would result in increased luciferase activity in reporter assays.
Using this system, we screened a collection of Food and Drug Administration-approved drugs and identified 10 compounds that increased luciferase activity to more than 1.5-folds (Table 1). […] Pitavastatin is a unique lipophilic statin and potent inhibitor of HMG-CoA reductase with a strong effect on lowering plasma total cholesterol and triacylglycerol. Pitavastatin has also been reported to have pleiotropic beneficial effects such as suppression of inflammation, regulation of angiogenesis and osteogenesis, improvement of endothelial function and arterial stiffness.

γc = γc level by immunoblotting after PC treatment of T cells and T cell lines; format: cell-based; conditions: PC 0, 0.5, 1, 2 μM, 24 h; human and mouse CD8+ T, Jurkat, HPB-ALL, CTLL2 cells; listed as PC
[3] = test system: tumor-infiltrating lymphocytes; assay: Flow cytometry of tumor-infiltrating lymphocytes from MC38 tumors after PC; format: in vivo, mouse
Protocol: as §1
Cells were subjected to stain with the indicated antibodies for 30 min in 4° C. The cells were analyzed and data were acquired with BD Fortessa X-20 and FACSDiva 7 software following the exemplified gating strategy for flow cytometry analysis. The data were processed using FlowJo software.
Pitavastatin calcium (PC) therapy in C57BL/6j mice: mice were intraperitoneally injected with control or PC (P129617, 5 mg/kg/day, dissolved in PBS, Aladdin) three (MC38 tumor) or five (B16F10 tumor) days after inoculation of tumor cells, and tumor sizes were measured every two days by caliper. Tumor-bearing mice were euthanized on day 13 (MC38 tumor) or day 15 (B16F10 tumor). TILs were analyzed by flow cytometry.
Tumor tissues were separated from the mice and cut into pieces. The tumor tissues were suspended with 2 ml of tumor digestion buffer (1×HBSS buffer with 5 mg/ml collagenase II and 0.1% DNaseI) and rotated for at 37° C. for 1 h. The cell suspension was filtered using a 70-μm filter to obtain single-cell suspension. […] Cells were analyzed and data were acquired with BD Fortessa X-20 and FACSDiva 7 software following the exemplified gating strategy for flow cytometry analysis. […]

SMILES: O=C(O)C[C@H](O)C[C@H](O)/C=C/c1c(C2CC2)nc2ccccc2c1-c1ccc(F)cc1 [Pitavastatin calcium]
- tumor suppression by IL-2 or IL-2 plus PD-1 blocking antibody when PC is added (MC38 cells): significantly improved the efficacy of anti-tumor immunotherapy in mice
- overall survival of mice treated with IL-2 or IL-2 plus PD-1 blocking antibody when PC is added (MC38 cells; listed as PC): significantly increased the efficacies; also recorded: promotes the survival rate of mice treated with IL-2 and PD-1 blockade
- tumor suppression by IL-2 or IL-2 plus PD-1 blocking antibody when PC is added (MC38 cells; listed as PC): significantly increased the efficacies; also recorded: potentiates the anti-tumor efficacy of IL-2 and PD-1 combination; also recorded: sensitized the anti-tumor effects of IL-2 as well as its combination with PD-1 blocking antibody
- γc protein level, MARCH5 dependence [1]: did not further increase its protein level; also recorded: MARCH5-deficiency impairs PC-induced up-regulation of γc; also recorded: up-regulated the level of γc in a MARCH5-dependent manner
- tumor growth [2]: significantly suppressed tumor growth; also recorded: suppresses tumor growth; also recorded: inhibited tumor growth
- synergistic effect with IL-2 on tumor suppression (tumor; combined with IL-2, mice): has a synergistic effect
- tumor growth (tumor; statin administered alone, mice): suppressed tumor growth
- Rel. Luc. Act (MARCH5; HEK293 cells co-transfected with MARCH5 and γc-luciferase fusion protein, increase = MARCH5 inhibition): 2.06
- luciferase activity in MARCH5-expressing versus control HEK293 cells (MARCH5; confirmative experiments): specifically increased the luciferase activity in MARCH5-expressing but not control HEK293 cells
- level of γc (immunoblotting) (γc): up-regulated the level of γc in a dose-dependent manner; also recorded: up-regulates the level of γc
- level of γc in tumor-infiltrating lymphocytes ([3]; MC38 tumors, PC 5 mg/kg/day i.p., listed as PC): higher level of γc; also recorded: up-regulated the level of γc in tumor-infiltrating lymphocytes
- percentage of TIM3+ cells in infiltrated CD8+ T cells ([3]; MC38 tumors, PC treatment): reduced the percentage of TIM3^+ cells
- percentage of GzmB+ cells in infiltrated CD8+ T cells ([3]; MC38 tumors, PC treatment, listed as PC): up-regulated the percentage of GzmB^+ cells; also recorded: increases tumor infiltrating CD8^+ cytotoxic T cells
- percentages of CD8+ T, NK, CD4+ T, Treg and B cells in tumor-infiltrating lymphocytes ([3]; after PC administration): did not show significant difference
